We go through five molecules from EP0139891A2, “Pharmaceutical compositions with antibiotic-immunostimulating activity” (B.T.B. INDUSTRIA CHIMICA S.p.A., priority 1983, dated 1985).

Values after ≈ are worked out from the molar mass of the structure shown. Counter-ions that a name gives are not always drawn.

The subject of one data set is pneumococ bacteria. The data set can be described thus: Antibacterial in vivo activity in infected rats. Conditions: rats infected with LD100 of pneumococ bacteria; orally every twelve hours 25 mg/kg as erythromycin base; 8 days observation. Also noted: species or system Sprague-Dawley rats. The procedure:
60 Sprague-Dawley rats of both sexes (3 lots of 20 animals each) were infected with an LD100 of pneumococ bacteria. Said LD100 was determined in 10^6C.F.U. and was given to the rats through tracheal cannula. The death of the animals occurred at the 3rd-4th day. The observation period lasted 8 days.
The obtained results are reported in the fol lowing Table I and are expressed as per cent mortalities over the controls.
Both the dead and the survived animals underwent a hystological examination of the main organs, namely lungs, liver, kidneys, heart and brain.

The test system of a further data set is S. aureus. Put plainly: Antibacterial in vitro activity (M.I.C.). It is filed as cell-based. Conditions: micrograms of substance per ml of bacterial suspension. The procedure:
(§1) The M.I.C.s were determined against three pathogenic bacterial strains, and are expressed as micrograms of substance per ml of bacterial suspension […].

Another data set deals with S. pyogenes. The data set can be described thus: Antibacterial in vitro activity (M.I.C.). To be noted: micrograms of substance per ml of bacterial suspension. The format is cell-based. The procedure:
as §1

A further data set deals with H. influenzae. Put plainly: Antibacterial in vitro activity (M.I.C.). The format is cell-based. To be noted: micrograms of substance per ml of bacterial suspension. The procedure: as §1
A further data set concerns St Albus ATCC 12228. The data set can be described thus: Phagocytosis test on phagocytes of treated patients. The format is in vivo. Conditions: patients with chronical bronchitis, erythromycin 1 gram and/or inosine 182 mg. The method, then: (§2) of F.F.001 was investigated in a clinical research on patients affected by chronic bronchial infection. The immunostimulating action was determined through the monitorage of the phagocytary and NK cells activity.
2 Ml of a phagocytes suspension (10^6 phagocy- tes/ml) was mixed up in a sterile test tube with 2 ml of St Albus ATCC 12228 (10^6 microorganisms/ ml) suspended in Gelatine "Hanks-solution" with 10% AB serum and 0.4 ml of AB serum.
The mixture was then incubated at 37 degrees C under continuous stirring. 2 Ml of St Albus ATCC 12228 suspended in gelatine "Hanks-solution" with 10% of AB serum (10^6 microorganisms/ml) were mixed up in another sterile test tube with 2.04 ml of Gelatine "Hanks-solution" and incubated under the same conditions described above.
At regular time intervals (0-30 min.-60 min.-90 min.) aliquots of the suspension corresponding to 0.5 ml were added to 1.5 Ml of Gelatine "Hanks-so lution" previously cooled to 4 degrees in order to stop the phagocytosis process.
The samples were then centrifuged for 4 min. at 110 r.p.m. in order to obtain the complete sedimen tation of the leucocytes, while the upper phase consisted of a suspension containing the bacteria (supernatant).
The supernatant liquid was then diluted with a
sterile saline solution (Bacto-haemogglutination Soerensen buffer) at a 1:10 ratio, in order to be sure that at least the last dilution contained a number of living bacteria ranging between 100 and 1000/ml.
Aliquots of 0.1 ml of bacterial suspension were then taken from the […] dilutions and both of them were pipetted on a plate containing Diagnostic Sensitive Test Agar (Oxoid) and immedia tely distributed on the whole surface with a sterile spatula.
The plates were incubated at 37 degrees C for 24 h and the number of colonies was then determined with a colony counter.
The same procedure was followed after having withdrawn aliquots of 0.5 ml of bacterial suspension from the test tube.
Phagocytosis, as a function of time, was determined in vitro and can be expressed as the reduction percent of the number of living bacteria deter mined at the beginning of the experiment (No). [formula]
F(t) is the phagocytosis index after t min., while Nt is the number of living bacteria after t min.
(§3) In the groups 1), 3), 4) and 5) the dose of erythromycin was always 1 gram; in the groups 2), 3), 4) and 5) the corresponding dose of inosine was 182 mg.

Data set [1] is described as follows: Acute toxicity after oral administration. Conditions: in vivo, rat.
A further data set deals with K562. The data set can be described thus: Natural killer activity test on lymphocytes of treated patients. It is filed as in vivo. Conditions: same patients and doses, percentage of aspecific lysis of K562. The procedure: as §2
This test consists in the determination of the percentage of aspecific lysis of a human tumoral target, K562, mediated by circulating lymphocytes.
The lymphocytes were isolated by centrifuging heparinized blood at a 1:1 dilution with physiologic solution or with a solution of "Hanks" salts of "Ficol".
After 30 min. of centrifugation at 1000 r.p.m. a band of stratified leucocytes was obtained over the "Ficol" level.
At the same time the K562 were labelled with ^51Cr by adding the radioisotope solution to a suspension containing […] in 0.5 ml of colture medium.
After 45 min. of incubation at 37 degrees C the cells were washed three times with a solution of "Hanks" salts.
The labelled cells were then incubated with leucocytes at 37 degrees C at various ratios for 4 h, after which the percentage of […] release was determined in the supernatant and assumed to be directly proportional to the K562 cell lysis mediated by leucocytes.
as §3

[2] abbreviates: 0 hours (moment of administration), reduction percent of living bacteria.
Where [3] appears, read: 0 hours (moment of administration).

Regarding `CCC(=O)O[C@H]1[C@H](O[C@@H]2[C@@H](C)[C@H](O[C@H]3C[C@@](C)(OC)[C@@H](O)[C@H](C)O3)[C@@H](C)C(=O)O[C@H](CC)[C@@](C)(O)[C@H](O)[C@@H](C)C(=O)[C@H](C)C[C@@]2(C)O)O[C@H](C)C[C@@H]1N(C)C` [Er. prop., erythromycin propionate], the Mortality in the data set with pneumococ bacteria is 5%. The MIC in the data set with S. aureus (Staphylococcus aureus, read-out: minimum inhibiting concentration (M.I.C.)) turned out to be 0.35 µg/mL (≈ 0.443 µM); in the data set with S. pyogenes (Streptococcus pyogenes, read-out: minimum inhibiting concentration (M.I.C.)), 0.04 µg/mL (≈ 0.0506 µM); in the data set on H. influenzae (Haemophilus influenzae, read-out: minimum inhibiting concentration (M.I.C.)), 0.31 µg/mL (≈ 0.392 µM).
As usually defined, the LD50 is the dose expected to kill half of the subjects tested. A low value points to greater toxicity. Regarding `CC[C@H]1OC(=O)[C@H](C)[C@@H](O[C@H]2C[C@@](C)(OC)[C@@H](O)[C@H](C)O2)[C@H](C)[C@@H](O[C@@H]2O[C@H](C)C[C@H](N(C)C)[C@H]2O)[C@](C)(O)C[C@@H](C)C(=O)[C@H](C)[C@@H](O)[C@]1(C)O` [Erythromycin, erythromycin], the phagocytosis is recorded as 8-24 with St Albus ATCC 12228 (setting [2]); 8-24 in the data set with St Albus ATCC 12228 (2 hours after administration); 8-24 in the data set on St Albus ATCC 12228 (4 hours after administration); 8-24 in the data set on St Albus ATCC 12228 (6 hours after administration); 31-60 with St Albus ATCC 12228 (8 hours after administration); 8-24 in the data set on St Albus ATCC 12228 (24 hours after administration). In addition, the Mortality in the data set on pneumococ bacteria amounted to 5%. In addition, in data set [1], the LD50 is more than 6000 mg/kg. Also, the NK-test in the data set on K562 (setting [3]) is recorded as 7.4-23.0; in the data set with K562 (2 hours after administration), 7.4-23.0; in the data set with K562 (4 hours after administration), 7.4-23.0; with K562 (6 hours after administration), 7.4-23.0; with K562 (8 hours after administration), 45.3-67.8; in the data set with K562 (24 hours after administration), 7.4-23.0.
Regarding `CCOC(=O)CCC(=O)O[C@H]1[C@H](O[C@@H]2[C@@H](C)[C@H](O[C@H]3C[C@@](C)(OC)[C@@H](O)[C@H](C)O3)[C@@H](C)C(=O)O[C@H](CC)[C@@](C)(O)[C@H](O)[C@@H](C)C(=O)[C@H](C)C[C@@]2(C)O)O[C@H](C)C[C@@H]1N(C)C` [F.F.002, salt of erythromycin ethylsuccinate with inosine-5-phosphoric acid in the molar ratio 2:1], the phagocytosis is on record as 5-20 with St Albus ATCC 12228 (setting [2]); 16-62 in the data set with St Albus ATCC 12228 (2 hours after administration); 16-62 in the data set with St Albus ATCC 12228 (4 hours after administration); 16-62 in the data set on St Albus ATCC 12228 (6 hours after administration); 34-82 with St Albus ATCC 12228 (8 hours after administration); 5-20 in the data set on St Albus ATCC 12228 (24 hours after administration). The NK-test is 5.2-17.8 with K562 (setting [3]); 44.9-68.2 in the data set with K562 (2 hours after administration); 46.1-69.8 in the data set on K562 (4 hours after administration); 50.1-71.8 in the data set on K562 (6 hours after administration); 52.9-76.1 in the data set on K562 (8 hours after administration); 5.2-17.8 with K562 (24 hours after administration).
Regarding `OC[C@H]1O[C@@H](n2cnc3c(O)ncnc32)[C@H](O)[C@@H]1O` [Inosine, inosine], the phagocytosis is 5-19 in the data set on St Albus ATCC 12228 (setting [2]); 10-50 with St Albus ATCC 12228 (2 hours after administration); 5-19 in the data set with St Albus ATCC 12228 (4 hours after administration); 5-19 with St Albus ATCC 12228 (6 hours after administration); 5-19 in the data set with St Albus ATCC 12228 (8 hours after administration); 5-19 with St Albus ATCC 12228 (24 hours after administration). For the same molecule, the NK-test in the data set on K562 (setting [3]) is 4.5-19.0; in the data set with K562 (2 hours after administration), 10.0-56.5; with K562 (4 hours after administration), 4.5-19.0; in the data set on K562 (6 hours after administration) it was 4.5-19.0; in the data set on K562 (8 hours after administration) it was 4.5-19.0; with K562 (24 hours after administration), 4.5-19.0.
As for “salt of erythromycin propionate with inosine-5-phosphoric acid in the molar ratio 2:1 [F.F.001]”, the phagocytosis is 5-20 with St Albus ATCC 12228 (setting [2]); 16-62 with St Albus ATCC 12228 (2 hours after administration); 16-62 in the data set on St Albus ATCC 12228 (4 hours after administration); 16-62 with St Albus ATCC 12228 (6 hours after administration); 34-82 with St Albus ATCC 12228 (8 hours after administration); 5-20 with St Albus ATCC 12228 (24 hours after administration). In the data set on pneumococ bacteria, this molecule came in with a Mortality of 0%. In addition, the “minimum inhibiting concentration (M.I.C.)” value in the data set on S. aureus is recorded as 0.31 ℓ/ml; with S. pyogenes, 0.036 ℓ/ml; in the data set with H. influenzae, 0.31 ℓ/ml. Besides, the NK-test with K562 (setting [3]) is recorded as 4.9-21.7; with K562 (2 hours after administration), 45.8-68; with K562 (4 hours after administration), 47.3-70.1; with K562 (6 hours after administration) it was 48.0-71.1; with K562 (8 hours after administration) it was 50.2-74.2; in the data set on K562 (24 hours after administration), 4.9-21.7.
